Laboratory results published in US5444083A, “Pyrrolidine compound and pharmaceutical use” (Eisai Co., Ltd., priority 1989, dated 1995).
Structures can show the parent of a compound that is named as a salt.

Experiments:
[1] = biological target: T1, D1 receptor (striatum of rat) (Rattus norvegicus, UniProt P18901); experiment: specific binding of D1 receptors in the striatum of rat; conditions: displacement of 3H-Sch23390 0.3 nM, rat striatum synaptosome fraction, 37 degree centigrade, 15 minutes
T1 construct: The striatum of rats were excised, homogenized; from tissue; host or cells: rat striatum, synaptosome fraction
T1 sequence (P18901 whole entry): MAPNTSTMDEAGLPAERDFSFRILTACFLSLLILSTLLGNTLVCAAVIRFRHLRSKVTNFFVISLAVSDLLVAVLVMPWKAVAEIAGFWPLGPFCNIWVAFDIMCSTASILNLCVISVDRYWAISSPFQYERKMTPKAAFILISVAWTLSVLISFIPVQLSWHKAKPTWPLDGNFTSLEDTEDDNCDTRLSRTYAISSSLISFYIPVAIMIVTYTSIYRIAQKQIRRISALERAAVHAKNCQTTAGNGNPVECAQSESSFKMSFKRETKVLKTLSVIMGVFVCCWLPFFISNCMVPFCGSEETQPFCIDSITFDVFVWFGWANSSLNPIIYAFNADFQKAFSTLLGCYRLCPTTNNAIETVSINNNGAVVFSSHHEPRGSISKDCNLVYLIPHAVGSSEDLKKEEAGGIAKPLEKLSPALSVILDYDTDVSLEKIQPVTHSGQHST
Description: (§1) 1. Test on specific binding of D1 and D2 receptors in the striatum of rat
(§2) The striatum of rats were excised, homogenized with a 0.05M Tris Fuffer and then centrifuged at 20,000×g to collect its synaptosome fraction. The sediment was washed several times with a 0.25M Tris Buffer and suspended in a 0.05M Tris Buffer containing 120 mM of Nacl, 5 mM of KCl, 2 mM of CaCls and 1 mM of MgCl2. The suspension was, in portions, placed in the frozen state at minus 80 degree centigrade. ^3 H-Sch23390 having a final concentration of 0.3 nM in the case of D1 and ^3 H-Spiperone having a finish concentration of 0.2 nM in the case of D2 were added to the portions of the suspension, respectively, together with a specimen. The mixtures were incubased at 37 degree centigrade for 15 minutes. Having been filtrated with a Whatman GF/B filter, they were examined with a liquid scintillation counter.

[2] = biological target: T2, D2 receptor (striatum of rat) (Rattus norvegicus, UniProt P61169); experiment: specific binding of D2 receptors in the striatum of rat; conditions: displacement of 3H-Spiperone 0.2 nM, rat striatum synaptosome fraction, 37 degree centigrade, 15 minutes
T2 construct: The striatum of rats were excised, homogenized; from tissue; host or cells: rat striatum, synaptosome fraction
T2 sequence (P61169 whole entry): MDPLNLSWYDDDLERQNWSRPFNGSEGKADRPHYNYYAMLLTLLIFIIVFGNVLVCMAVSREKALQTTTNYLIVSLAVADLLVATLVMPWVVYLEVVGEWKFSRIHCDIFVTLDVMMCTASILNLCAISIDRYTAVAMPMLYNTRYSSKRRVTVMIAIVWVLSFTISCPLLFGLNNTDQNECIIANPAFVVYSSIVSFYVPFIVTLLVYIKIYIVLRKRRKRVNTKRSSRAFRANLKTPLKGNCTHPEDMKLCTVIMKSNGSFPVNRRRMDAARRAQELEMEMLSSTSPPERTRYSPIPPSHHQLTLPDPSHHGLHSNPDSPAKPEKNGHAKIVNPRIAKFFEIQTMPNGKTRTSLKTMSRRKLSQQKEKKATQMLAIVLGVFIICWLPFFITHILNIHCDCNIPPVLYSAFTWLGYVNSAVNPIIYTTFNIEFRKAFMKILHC
Description: as §1, §2

anesthetized dogs = experiment: Action cardiohemodynamics in anesthetized dogs; type: in vivo, Mongrel dogs; conditions: Canis lupus familiaris, iv, intravenously, read-out: decrease of mean blood pressure; for inhibition in vivo at 0.01 mg/kg: 10 microgram/kg; for inhibition in vivo at 0.003 mg/kg: 3 microgram/kg; for inhibition in vivo at 0.001 mg/kg: 1 microgram/kg
Description: 2. Action cardiohemodynamics in anesthetized dogs
Mongrel dogs of about 10 kg were anesthetized with the intravenous administration of 20 mg/kg of thiopental sodium. They were then treated by introducing oxygen gas, nitrous oxide gas and enflurane in combination through an endotracheal tube inserted thereinto to conduct artificial respiration and with an Acoma artificial respirator ARF-850E (trademark) and an Acoma anesthesia apparatus EM-A (trademark) to keep the anesthesia still effective. The aortic pressure and the internal pressure of the left ventricle were determined with a micro-tip catheter pressure transducers, MPC-500, tradename of Miller, inserted at the femoral arteries. The renal blood […] was determined by exposing by laparotomy the renal artery to a probe of an electromagnetic blood flowmeter, MFV-2100, tradename of Nihon Kohden Corp. Results are caught with a polygraph system, RM-6000, tradename of Nihon Kohden Corp.
The specimen was dissolved in a 0.9% saline solution and administered at the brachial vein through a catheter inserted thereinto. When the administration was made at the duodenum, the duodenum was exposed by the median incision to a catheter inserted thereinto. Results are shown in terms of an increase in percent of the renal blood flow and a decrease in percent of the mean blood pressure when the test compound was administered.

IC50 [1] | IC50 [2] | SMILES | inhibition in vivo at 0.01 mg/kg (anesthetized dogs) | inhibition in vivo at 0.003 mg/kg (anesthetized dogs) | inhibition in vivo at 0.001 mg/kg (anesthetized dogs)
4800 nM | 88 µM | Oc1ccc([C@@H]2CNC[C@H]2c2ccccc2)cc1O (relative stereo) [Compound A, trans-3-(3,4-dihydroxyphenyl)-4-phenylpyrrolidine hydrobromide] |  |  | 
600 nM | 10 µM | Cc1ccccc1[C@@H]1CNC[C@H]1c1ccc(O)c(O)c1 (relative stereo) [Compound B, trans-3-(3,4-dihydroxyphenyl)-4-(2-methylphenyl)pyrrolidine hydrobromide] | 23% |  | 
600 nM | 7 µM | Oc1ccc([C@@H]2CNC[C@H]2c2ccccc2Cl)cc1O (relative stereo) [Compound C, trans-3-(2-chlorophenyl)-4-(3,4-dihydroxyphenyl)pyrrolidine hydrobromide] | 21% |  | 
380 nM | 5.3 µM | Oc1ccc([C@@H]2CNC[C@H]2c2cccc(O)c2Cl)cc1O (relative stereo) [Compound D, trans-3-(2-chloro-3-hydroxyphenyl)-4-(3,4-dihydroxyphenyl)pyrrolidine hydrobromide] |  | 15% | 
170 nM | 90 µM | Cc1ccsc1[C@@H]1CNC[C@H]1c1ccc(O)c(O)c1 (relative stereo) [Compound E, trans-3-(3,4-dihydroxyphenyl)-4-(3-methylthienyl)pyrrolidine hydrobromide] | 15% |  | 
9000 nM | 50 µM | Cc1ccsc1[C@H]1CNC[C@H]1c1ccc(O)c(O)c1 (relative stereo) [Compound F, cis-3-(3,4-dihydroxyphenyl)-4-(3-methylthienyl)pyrrolidine hydrobromide] |  |  | 
400 nM | 6 µM | Oc1ccc([C@@H]2CNC[C@H]2c2cccc3ccsc23)cc1O (relative stereo) [Compound G, trans-3-(7-benzothiophenyl)-4-(3,4-dihydroxyphenyl)pyrrolidine hydrobromide] |  |  | 
300 nM | 0.3 µM | Oc1ccc([C@@H]2CNC[C@H]2Cc2cc(Cl)ccc2O)cc1O (relative stereo) [Compound H, trans-3-(3-chloro-6-hydroxyphenyl)-methyl-4-(3,4-dihydroxyphenyl)-pyrrolidine] |  | 15% | 
200 nM | 0.07 µM | Oc1ccc([C@@H]2CNC[C@H]2Cc2c(O)cccc2O)cc1O (relative stereo) [Compound I, trans-3-(2,6-dihydroxyphenyl)methyl-4-(3,4-dihydroxyphenyl)pyrrolidine] |  | 29% | 
130 nM | 1 µM | Oc1ccc([C@@H]2CNC[C@H]2Cc2c(O)ccc(Cl)c2O)cc1O (relative stereo) [Compound J, trans-3-(3-chloro-2,6-dihydroxyphenyl)-methyl-4-(3,4-dihydroxyphenyl)-pyrrolidine] |  |  | 22%
130 nM | 2 µM | Oc1ccc([C@@H]2CNC[C@H]2Cc2cc(F)cc(F)c2O)cc1O (relative stereo) [Compound K, trans-3-(3,5-difluoro-2-hydroxyphenyl)-methyl-4-(3,4-dihydroxyphenyl)-pyrrolidine] |  |  | 17%
200 nM | 5 µM | Oc1ccc([C@@H]2CNC[C@H]2Cc2cccc(F)c2O)cc1O (relative stereo) [Compound L, trans-3-(3-fluoro-2-hydroxyphenyl)methyl-4-(3,4-dihydroxyphenyl)pyrrolidine] |  | 21% | 
